SMILES	melting point [°C]
CN1CC(C(=O)CN2CCCCC2)CC2c3cccc4[nH]cc(c34)CC21 (centres undefined)	168 to 170
c1ccc2nc(N3CCNCC3)ncc2c1	64 to 66
CCOC(=O)C(Cc1ccc(Cl)cc1SCc1ccc(OC)cc1)(CC(C)C)C(=O)OCC	95 to 97
CCOC(=O)C1(CCCN)CCCCC1(O)c1ccccc1 (centres undefined)	130 to 133
CSC(Oc1cc(I)c2ncc(Br)cc2c1)C(=O)NC(C)(C)C (centres undefined)	171 to 172
C=CCc1cc(CN2C(=O)CCc3c2ccc(O)c3CC=C)cc(OC)c1O	159 to 161
NCc1ccn(-c2cc3c(cc2[N+](=O)[O-])[nH]c(=O)c(=O)n3C2CCCCC2)c1	> 300
Cc1nc2c(N)c(C(=O)C3OC3c3ccsc3)ccn2c1C (centres undefined)	186 to 189
OC1CSC(Oc2cnccc2C(F)(F)F)C(O)C1O (centres undefined)	191
CS(=O)(=O)c1ccc([C@@H](CC2CCC(=O)CC2)C(=O)O)cc1Cl	129 to 131
CC(C)(C)OC(=O)C(CN(Cc1ccccc1)Cc1ccccc1)CC1(C(=O)NC(Cc2ccc(OC(C)(C)C)cc2)C(=O)OC(C)(C)C)CCCC1 (centres undefined)	82 to 87
Cc1nnc2n1-c1sc(Cl)cc1C(c1ccccc1Cl)=NC2	205 to 206
CCOC(=O)CC(C)(C)NCC(O)c1ccc(O)c2[nH]c(C(=O)OCC)cc12 (centres undefined)	175 to 178
COc1cc(CCCCCC2OC(=O)NC2=O)ccc1OCc1nc(-c2ccccc2)oc1C (centres undefined)	114 to 115
CC1CCCC(C)N1NC(=O)Nc1cccc2c1C(=O)c1c-2n[nH]c1-c1ccc(N2CCNCC2)cc1 (centres undefined)	270
N#Cc1ccc(OCc2ccc3ncoc3c2)cc1OC(C(=O)O)c1ccccc1Cl (racemic)	172 to 178
CC1(C)CCCN(C(=O)[C@H]2C[C@H](C(=O)O)[C@@H](c3ccccc3F)N2C(=O)CNC(=O)Nc2cccc(CC(=O)O)c2)C1 (racemic)	173
COC(=O)NS(=O)(=O)c1ccc(NC(=O)COc2ccc(Cl)cc2C)cc1	184 to 185
Cc1oc(C2=NOC(c3cc(Cl)cc(Cl)c3)(C(F)(F)F)C2)cc1C(=O)NCC(=O)NCC(F)(F)F (centres undefined)	172 to 174
COc1ccc2cccc(C(CO)CNC(=O)C3CC3)c2c1 (centres undefined)	153 to 154
Cc1cc2[nH]c(=O)c3cnc(Cl)cc3n2n1	> 300
Cc1c(-c2cnc(C(N)=O)c3[nH]c4cc(NC5CCOC5)ccc4c23)cccc1N1Cc2ccc(Cl)cc2C1=O (centres undefined)	115
CCON=Cc1c(S(C)(=O)=O)ccc(C(=O)C2C(=O)CC(C)(C)CC2=O)c1Cl	156 to 157
CC(=O)OCCc1nc2c(N)nc3ccccc3c2n1CC(C)C	187 to 189
CCCCCCCCC#Cc1ccc(C(=O)O)cc1	103

SMILES	melting point [°C]
CCOCc1nc2c(N)nc3ccccc3c2n1CC(C)(O)CC (centres undefined)	189 to 191
CC(=O)OC1OCC[C@@H]1NC(=O)[C@@H](NC(=O)OCc1ccccc1)C(C)C (some centres undefined)	173 to 174
O=C(O)CC1(c2ccc(Cl)cc2)Oc2ccccc2O1	138
CC(C)CCn1c(CN2C(=O)N(C3CC3)Cc3ccccc32)nc2cc(CN)ccc21	113
COc1cc2c(cc1OC)C(C=Cc1ccc(Br)cc1)=NN=C(C)C2	156 to 158
Cc1cc(C(C)(C)C)c(O)cc1[N+](=O)[O-]	96 to 98
CC(C)(C#N)Cc1ccc(-c2ccc(CC(C)(C)C#N)cc2)cc1	174 to 182
CC1(O)CC2(C)C(=O)CCC2C2CCC3=CC(=O)CCC3(C)C21 (centres undefined)	150 to 151
O=C(NCC1CC1)N1CC(Oc2ccc(C(F)(F)F)cc2)C1	132 to 133
COc1ccccc1CNc1nc(Cl)nc2c1ncn2[C@@H]1SC[C@@H](O)[C@H]1O	188
CCOCc1nc2c(N)nc3cc(OCCCCCCNC(=S)NC(C)C)ccc3c2n1CC(C)(C)NC(C)=O	110 to 120
CCCCn1c(CO)nc2cnc3ccccc3c21	146 to 149
CN(C)S(=O)(=O)c1ccc(C(F)(F)F)cc1S(N)(=O)=O	189 to 191
COc1ccc(N=C(NC(=O)Nc2ccc(-c3ncn(-c4ccc(C(F)(F)F)cc4)n3)cc2)SCOC(=O)C(C)C)c(C)c1	160 to 164
CS(=O)(=O)c1ccc(-c2oc(C(c3ccccc3)c3ccccc3)nc2-c2ccc(F)cc2)cc1	155 to 156
CCOC(=O)Cc1c(C(=O)OCC)[nH]c2ccccc12	75 to 78
COc1cccc(COCc2cccc(OC)c2OC)c1OC	58 to 60
O=C(O)CCn1cc(Cc2cccnc2)c2cc(NS(=O)(=O)c3ccc(F)cc3)ccc21	214 to 215
CN1CCC(=C2c3cc(CO)n(C)c3CCn3ccnc32)CC1	214
NC(=O)[C@H](NCc1ccccc1)[C@@H]1CSC(=O)N1Cc1ccccc1	194 to 195
NC(=O)c1nc(-c2cccc(O)c2)nc2c1[nH]c(=O)n2-c1cccc2c1CCCC2	> 250
Fc1ccccc1CC[C@H]1CNCCN1	94 to 99
CNC(=O)C1Cc2c(nc(C)n2C)C2=C1C(=O)CC1(Cc3ccccc3C1)N2 (centres undefined)	93 to 94
CCC(=O)NCC1CCC(Nc2nc3c(s2)CCOc2ccccc2-3)CC1 (centres undefined)	56 to 60
CC1(CN2CCN(c3nc4ccccc4o3)CC2)Cn2cc([N+](=O)[O-])nc2O1 (centres undefined)	228 to 230

SMILES	melting point [°C]
Oc1ccc2ccc(-c3ccccc3)cc2c1	205
O=C(Nc1ccncc1)c1c(OCC2CC2)ccc2oc3ccccc3c12	243 to 244
O=C1c2c(-c3ccccc3F)noc2CCC1CCCN1CCN(c2ncccn2)CC1 (centres undefined)	115 to 117
COc1cc(OC)c(-c2nc(C)no2)cc1C=O	182 to 183
CCOC(=O)NNc1cc(C)c(-c2ccc(Br)cc2)nn1	178 to 179
CC1(C)COCC(=O)N1NCc1ccccc1	76 to 77
CN1CCC(N2C(=O)CN=C(c3ccccc3)c3ccccc32)CC1	158 to 159
NC(=O)c1c(Cl)c(-c2ccccc2)n2c1CN(S(=O)(=O)Nc1ccc(F)cc1)CC2	183 to 185
COC(=O)c1ccc2c(c1)CCN2C(=O)OC(C)(C)C	107 to 108
CS(=O)(=O)N1CCC(NC(=O)N(CCCN2CCC(Cc3ccccc3)CC2)c2ccccc2)CC1	158 to 160
CC(=O)OC1=CC(C)C2(C)C(=C1)CCC1C3CCC(=O)C3(C)CCC12 (centres undefined)	104 to 107
Cc1cc(Cc2nnc(Nc3cc(Br)cc(C(F)(F)F)c3)c3ccccc23)ccn1	122 to 123
COC(=O)C(S)CNC(=O)C(=O)NCC(S)C(=O)OC (centres undefined)	150 to 151
CCCCSc1cc([N+](=O)[O-])cc2c1C(=O)OC2=O	95 to 97
CCC1(CC(=O)O)OCCc2c1[nH]c1c(OCC(F)(F)F)c(Cl)ccc21 (centres undefined)	157
N#Cc1ccc(NC(=O)CCC2CCCC(=O)O2)cc1 (centres undefined)	145 to 148
CC(=O)CCCCCNC(=O)Nc1ccccc1CCc1cc(C(C)(C)C)c(O)c(C(C)(C)C)c1	73 to 76
O=c1cc2c(nn1-c1ccc(Cl)cc1)-c1cc(Cl)ccc1SCC2	215 to 217
CN(CCCCCCCNC(=O)NCCSCc1csc(NC(=N)N)n1)CCN(Cc1ccc(F)cc1)c1ccccn1	125
Nc1nc(-n2cc(C(=O)O)c(=O)c3cc(F)c(F)c(Cl)c32)ccc1F	232 to 235
CCCCc1nc(-c2nc(C)nc(C)n2)ccc1C	73.5
O=C(Nc1ccc2cc(CN3CCCC3)cnc2c1F)c1ccc(-c2ccccc2)cc1	186 to 188
COc1ccc2c(c1)CCC(=Cc1ccc(OCCCN(C)C)cc1)C2=O	68 to 71
COc1ccc(C2(O)CC=C(c3ccncc3)N(C)C2=O)cc1 (centres undefined)	224 to 226
CC[C@H](NC(C)=O)c1nc2c(C(F)(F)F)cccc2c(O)c1C(=O)Nc1nccs1	275

SMILES	melting point [°C]
CC1(C)CCC(C)(C)c2cc(C3NC(=O)NC3=O)ccc21 (centres undefined)	213 to 214
COC(=O)c1sccc1COC(C)=O	42 to 43
CN(C)S(=O)(=O)c1cc(C(=O)Cl)ccc1Cl	103 to 105
CCCOC(=O)c1ccc(C#CC2(O)CN3CCC2CC3)cc1O (centres undefined)	173 to 175
Cc1noc(NS(=O)(=O)c2ccccc2-c2ccc(CC(C)C)cc2CNC=O)c1C	78 to 83
CN1CCN(C(=O)OC2C3=C(SCCS3)C(=O)N2c2ccccc2)CC1 (centres undefined)	166
Nc1cc(=O)n(Cc2ccc(I)cc2)[nH]1	158
CCNC(=S)OCCOc1ccc(Oc2ccc(F)cc2)cc1	73 to 75
CCc1nn(CCCO)c(CC)c1Cc1cc(Cl)cc(Cl)c1	56 to 59
CCNc1nc(SC)ncc1C=O	58 to 61
CCCCc1nc(C(O)C(C)C)c(C(N)=O)n1Cc1ccc(-c2ccccc2C(=O)O)cc1 (centres undefined)	> 131
O=C(O)c1cc(C(F)(F)F)c(F)c(F)c1F	82 to 84
COc1cc(Br)c(OC)c(C=O)c1	62 to 64
COc1cc2c(-c3cc4cc(F)cnc4[nH]3)cn(C)c2cc1OC	283
CS(=O)(=O)c1ncc2cc(-c3ccccc3Cl)c(O)nc2n1	215 to 221
CC(C)Oc1cc(-n2nc(Cl)n(C(F)F)c2=O)c(Cl)cc1Cl	115 to 119
COc1cc(OCCOc2ccc(C(=O)C(=O)O)cc2)cc(OC)c1OC	118 to 119
CCS(=O)(=O)N1CCN(c2ccc(NC(=O)c3cc(=O)c4cc(OC)cc(N5CCN(C)CC5)c4o3)cc2)CC1	232 to 234
CCCCCC(=N)NC(=S)Nc1ccc(Cl)cc1	100 to 102
CCOc1cc(/C(=C\C#N)c2ccc(NC(=O)OC)c(OC)c2)ccc1OC	148 to 149
COC(=O)Cn1c(=O)c(=O)[nH]c2ccccc21	269
O=C1N(Cc2cnccn2)c2ccccc2C12COc1cc3c(cc12)CCO3 (centres undefined)	143 to 144
CON(C)C(=O)c1cc2c(s1)CCCC2	36 to 37
CC(C)(O)c1csc(S(N)(=O)=O)c1	125 to 127
